{"source": "patent US9814714B2", "about": "“Kinase modulation, and indications therefor” (Plexxikon Inc., priority 2015, dated 2017)", "key": {"[1]": {"test_system": "MV-4-11 cells", "assay": "Growth assay (CellTiter-Glo), MV-4-11", "type": "cell-based", "conditions": "Homo sapiens, MV4-11, 72 h; biphenotypic B myelomonocytic leukemia; BRAF WT, RAS WT; 3 days", "from_the_text": "In order to determine the effects of Formula I on proliferation, a growth assay was established using melanoma cells (A375 and COLO829) and colorectal carcinoma cells (COLO205, HT-29) which each express the BRAFV600E mutation. To show selectivity over wild-type BRAF, several BRAF wild-type cell lines (K562, NOMO-1, MV-4-11 and ML-2) were also examined in the growth assay. The growth assay implemented the Promega CellTiter-Glo Luminescent Cell viability assay, which gives a luminescent readout that is proportional to the amount of ATP present in a cell sample. As ATP levels directly correlate with the number of viable cells, the luminescent signal can be used to determine the potency of Formula I to block the proliferation of the cell lines of interest.\n1. 3,000 cells were plated in each well for cell lines A375, COLO205, COLO829, HT-29, and SK-MEL-3. 25,000 cells were plated in each well for cell lines K562, ML-2, MV-4-11, and\nNOMO-1 of a 96-well tissue-culture-treated plate (Corning #3610) in a 50 μL volume. Cells were incubated overnight at 37° C.\n2. Each test compound was plated as an 8-point titration, using 1:3 dilutions in DMSO. The maximum concentration was about 5 mM. Dilute DMSO and test compound of Formula I 1:250 in growth media.\n3. […]\n4. […] Luminescence was measured on a Tecan Safire plate reader. […]"}, "[2]": {"biological_target": "BRAF_V600A (Homo sapiens, UniProt P15056, V600A)", "sequence (P15056 432-726 V600A)": "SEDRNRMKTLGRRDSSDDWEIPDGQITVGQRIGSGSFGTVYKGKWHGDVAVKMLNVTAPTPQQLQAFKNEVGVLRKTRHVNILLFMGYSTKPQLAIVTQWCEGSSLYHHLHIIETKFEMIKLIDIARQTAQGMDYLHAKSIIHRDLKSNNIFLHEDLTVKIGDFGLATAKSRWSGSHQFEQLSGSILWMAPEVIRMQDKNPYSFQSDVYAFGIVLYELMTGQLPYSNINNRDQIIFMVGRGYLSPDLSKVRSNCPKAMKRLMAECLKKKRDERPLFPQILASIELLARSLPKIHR", "assay": "RAF kinase biochemical assay, BRAF V600A", "conditions": "Table 3; ATP 100 μM", "description": "BRAF proteins were produced in insect cells at Plexxikon Inc. as N-terminally His-tagged fragments encompassing the kinase domain.\n1) Test compounds in DMSO were serially diluted and plated into 384-well assay plates at 1 μL/well.\n2) Added were 15 μL/well of RAF enzyme and biotinylated-MEK1 substrate in kinase buffer.\n3) Added were 4 μL of ATP (500 μM) in kinase buffer.\n5) After a brief spin down, the plate was incubated at about room temperature for 40-50 minutes. 6) Added was 5 μL of Stop buffer at final EDTA 20 mM; anti-phospho-MEK1 1:2,500; donor/acceptor beads 3 μg/mL. 7) After brief spin down, the plate was incubated at room temperature for about 3 hours. 8) The plate was read on the Envision multilabel plate reader (Perkin Elmer). […] 2. Results"}}, "data": [{"smiles": "O=C(c1c(F)ccc(NS(=O)(=O)N2CC[C@@H](F)C2)c1F)c1c[nH]c2ncc(-c3cnc(C4CC4)nc3)cc12", "note": "[Formula I, (3R)—N-[3-[5-(2-cyclopropylpyrimidin-5-yl)-1H-pyrrolo[2,3-b]pyridine-3-carbonyl]-2,4-difluorophenyl]-3-fluoropyrrolidine-1-sulfonamide]", "values": [{"measurement": "IC50", "setting": "[1]", "value": "> 10000", "unit": "nM"}, {"measurement": "IC50", "setting": "[2]", "value": 14.2, "unit": "nM"}]}]}
